From US20030028927A1 (priority 2001, published 2003)

Legend:
Type in all cases: in vivo, Arabidopsis thaliana
[1] = test system: Arabidopsis seedlings (ecotypes Col, Ler, Shadara); assay: Morphological phenotypes of Arabidopsis ecotype seedlings grown on Hsp90 inhibitor
Experimental: In most cases phenotypes were distinct and were not accompanied by a general failure to thrive. […] Next, several Arabidopsis ecotypes were tested from diverse geographic locations and environments, including Cape Verde Island ([…], Tsu-1, Mr-0, and Ts-1. […] Particular phenotypes were not restricted to particular ecotypes, but the frequencies at which they appeared varied reproducibly between them. […] 30% of seedlings had these phenotypes. […] also frequently produced distorted rosettes with juxtaposed cotyledons. Dwarfed plants with cotyledons that accumulated purple pigment were most common in Col. Curled hypocotyls were most frequent in Ler. Ecotypes were crossed several times in independent experiments to produce F1 seeds. […] Plates were unwrapped after 48 hrs at 22° C., were incubated in continuous light at 150 μmol m^-2 sec^-1 (unless otherwise indicated), and were analyzed after eight and ten days of growth.

[2] = test system: Cvi/Ler RI line seedlings; assay: RI line specific phenotypes on GdA
Description: To test this, recombinant inbred lines (RI lines) were examined, which originated from crosses between two ecotypes followed by single-seed self-propagation for eight generations. Each line should be homozygous at almost all loci, with different lines representing various mosaics of the parental genomes (Alonso-Blanco et al., 1998). If a decrease in Hsp90 function uncovers novel phenotypes due to natural variation, GdA-induced phenotypes should vary between RI lines but tend to be shared within them. Here, work with 50 RI lines derived from a cross between Cvi and Ler (Cvi/Ler, CS22477 base set, ABRC) is presented. These lines are characterized by high rates of recombination and low segregation distortion (Alonso-Blanco et al., 1998). Col/Ler RI lines behaved similarly, although phenotypic variation was not quite so dramatic.
(§1) Ecotypes were crossed several times in independent experiments to produce F1 seeds. […] Plates were unwrapped after 48 hrs at 22° C., were incubated in continuous light at ˜150 μmol m^−2 sec^−1 (unless otherwise indicated), and were analyzed after eight and ten days of growth.
To minimize variation and provide more objective comparisons, two RI lines were plated together on each square plate. All sets were cold treated for 48 hrs. Foil-wrapped plates incubated at 22° C. were treated as described above. Since development was more rapid at 27° C., these plates were unwrapped after 24 hrs instead of 48 hrs. Phenotypes were scored at eight and ten days.

[3] = test system: F1 seedlings (Col x Ler and Ler x Cvi); assay: Phenotypes of F1 progeny of accession crosses with GdA; conditions: Col x Ler and Ler x Cvi F1, in the presence of GdA
Description: To investigate the interplay of genetic variation, stochastic processes, and their dependence on the Hsp90 buffering system, Applicants tested crosses of different, nearly homozygous accessions (Col x Ler and Ler x Cvi) that are believed to have been recentlyevolving independently. If stochastic events contribute to phenotypes predisposed by genotype, then mixing genomes might disrupt developmental stability in F1 progeny. Further, if Hsp90 buffers developmental stability against such events, reducing Hsp90 function in nearly identical F1 progeny should increase phenotypic variance. […] Phenotypes were stronger and more frequent in seedlings with a maternal contribution from Ler (˜20 to 25% affected seedlings) than with maternal contributions from Col or Cvi (˜10 to 15%).
as §1

[4] = RI line 082, S-shaped rosette with vertically oriented leaf blade of cotyledons
[5] = RI line 104, purple pigmentation of cotyledons and true leaves
[6] = RI line 113, curled hypocotyl with root partially extended into air
[7] = RI line 119, deformed, radially-symmetric and missing true leaves
[8] = RI line 120, radially-symmetric and missing true leaves
[9] = RI line 122, distorted rosette, juxtaposed or fused cotyledons

Compound: COC1=C2C[C@@H](C)C[C@H](OC)[C@H](O)[C@@H](C)/C=C(\C)[C@H](OC(N)=O)[C@@H](OC)/C=C\C=C(/C)C(=O)NC(=CC1=O)C2=O [GdA, geldanamycin]
- seedlings showing strong morphological abnormalities ([1]; 1.0 μM GdA, Col and Ler): 5-8%
- phenotype frequency in selfed progeny ([1]; progeny of selfed Shadara plants with subtle true leaf abnormalities, with GdA): 75%
- Frequency with 1 μM GdA at 22° C. [2, 4]: 32%
- Frequency with 1 μM GdA at 22° C. (count) [2, 4]: 64/201
- Frequency with 1 μM GdA at 22° C. [2, 5]: 34%
- Frequency with 1 μM GdA at 22° C. (count) [2, 5]: 29/84
- Frequency with 1 μM GdA at 22° C. ([2]; RI line 104, root morphology): 52%
- Frequency with 1 μM GdA at 22° C. (count) ([2]; RI line 104, root morphology): 44/84
- Frequency with 1 μM GdA at 22° C. [2, 6]: 32%
- Frequency with 1 μM GdA at 22° C. (count) [2, 6]: 9/28
- Frequency with 1 μM GdA at 22° C. [2, 7]: 68%
- Frequency with 1 μM GdA at 22° C. (count) [2, 7]: 19/28
- Frequency with 1 μM GdA at 22° C. [2, 8]: 64%
- Frequency with 1 μM GdA at 22° C. (count) [2, 8]: 18/29
- Frequency with 1 μM GdA at 22° C. [2, 9]: 28%
- Frequency with 1 μM GdA at 22° C. (count) [2, 9]: 44/158
- Frequency with 1 μM GdA at 22° C. ([2]; RI line 134, bent hypocotyls): 88%
- Frequency with 1 μM GdA at 22° C. (count) ([2]; RI line 134, bent hypocotyls): 49/56
- Frequency with 1 μM GdA at 22° C. ([2]; RI line 159, root morphology): 50%
- Frequency with 1 μM GdA at 22° C. (count) ([2]; RI line 159, root morphology): 53/105
- decrease of growth rate ([2]; relative to plants grown without GdA at 22° C.): 0.5 to 1 days
- frequency of abnormal phenotypes in F1 progeny [3]: up to 25%
